This note sets out measurements from ChEMBL document CHEMBL4715733, “Nitrobenzofurazan derivatives of N'-hydroxyamidines as potent inhibitors of indoleamine-2,3-dioxygenase 1” (Eur J Med Chem, 2016).

A word on the pIC50: it is the negative decadic logarithm of the IC50, by convention in mol/L.

pIC50: −log10 of the molar value.

Test [1] concerns the target T1, Indoleamine 2,3-dioxygenase 1 (Homo sapiens, UniProt P14902). Briefly: Inhibition of recombinant human IDO1 assessed as N-formylkynurenine formation using L-tryptophan as substrate measured after 1 hr by UV-vis spectrophotometric analysis.
In test [2] the target is Tryptophan 2,3-dioxygenase (Homo sapiens, UniProt P48775). In words: Inhibition of recombinant human TDO assessed as N-formylkynurenine formation using L-tryptophan as substrate measured after 1 hrs by UV-vis spectrophotometric analysis.
Chain of Tryptophan 2,3-dioxygenase (P48775 whole entry): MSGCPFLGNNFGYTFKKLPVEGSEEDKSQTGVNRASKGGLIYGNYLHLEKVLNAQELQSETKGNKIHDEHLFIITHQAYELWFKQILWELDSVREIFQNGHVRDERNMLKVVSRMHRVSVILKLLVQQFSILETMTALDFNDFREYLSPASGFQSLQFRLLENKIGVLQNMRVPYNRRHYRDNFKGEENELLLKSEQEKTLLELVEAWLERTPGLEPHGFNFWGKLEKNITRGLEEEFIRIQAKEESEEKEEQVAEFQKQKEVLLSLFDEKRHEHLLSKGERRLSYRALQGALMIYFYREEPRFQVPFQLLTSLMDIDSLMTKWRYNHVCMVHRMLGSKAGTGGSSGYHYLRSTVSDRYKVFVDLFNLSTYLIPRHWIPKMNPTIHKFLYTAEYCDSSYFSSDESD
Test [3] concerns the target T1, Indoleamine 2,3-dioxygenase 1. In words: Inhibition of human IDO1 in IFN-gamma-induced human MDA-MB-231 cells assessed as N-formylkynurenine formation using L-tryptophan as substrate pretreated for 4 hrs followed substrate addition measured after 5 hrs by UV-vis spectrophotometric analysis. The class given is cell-based.
For test [4] the target is unchanged. Briefly: Inhibition of recombinant human IDO1 assessed as N-formylkynurenine formation using L-tryptophan as substrate measured after 1.5 hrs by HPLC analysis.

T1 sequence (P14902 whole entry): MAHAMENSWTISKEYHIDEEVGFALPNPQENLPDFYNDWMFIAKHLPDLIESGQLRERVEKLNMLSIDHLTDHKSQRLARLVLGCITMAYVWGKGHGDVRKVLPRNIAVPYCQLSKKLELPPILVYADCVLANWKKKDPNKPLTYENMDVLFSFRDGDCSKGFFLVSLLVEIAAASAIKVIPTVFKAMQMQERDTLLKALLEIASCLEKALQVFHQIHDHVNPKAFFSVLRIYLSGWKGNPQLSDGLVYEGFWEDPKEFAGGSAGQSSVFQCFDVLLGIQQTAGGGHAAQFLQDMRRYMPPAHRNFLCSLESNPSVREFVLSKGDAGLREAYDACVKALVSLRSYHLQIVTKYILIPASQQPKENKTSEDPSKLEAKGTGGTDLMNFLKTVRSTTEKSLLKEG

As to `O=[N+]([O-])c1ccc(N/C(Cc2ccc(F)cc2F)=N\O)c2nonc12`, the pIC50 is 6.80 in test [1] and 4.72 in test [2].

With `O=[N+]([O-])c1ccc(N/C(=N\O)c2ccccc2F)c2nonc12`, the pIC50 is 7.20 in test [1], 6.88 in test [3], 3.96 in test [2] and 7.25 in test [4].

As to `O=[N+]([O-])c1ccc(N/C(Cc2ccc(F)cc2)=N\O)c2nonc12`, the pIC50 in test [1] is 7.01; in test [3], 6.82; in test [2] it was 4.19; in test [4], 7.14.

As for `O=[N+]([O-])c1ccc(N/C(Cc2ccccc2F)=N\O)c2nonc12`, the negative-log IC50 (pIC50) in test [1] is 6.99; in test [3], 6.88; in test [2], 4.52; in test [4] it was 7.12.

In the case of `O=[N+]([O-])c1ccc(N/C(=N\O)c2ccc(Br)cc2)c2nonc12`, the figures for the negative-log IC50 (pIC50) in test [1] and in test [2] were 6.93 and 4.30, respectively.

As for `O=[N+]([O-])c1ccc(N/C(Cc2ccc(Cl)cc2)=N\O)c2nonc12`, the negative-log IC50 (pIC50) was 6.90 in test [1], 6.96 in test [3], 4.29 in test [2] and 7.11 in test [4].

Consider `O=[N+]([O-])c1ccc(N/C(=N\O)c2cccc(Cl)c2)c2nonc12`, for which the pIC50 in test [1] was 6.74.

Turning to `O=[N+]([O-])c1ccc(N/C(=N\O)c2ccccc2)c2nonc12`, the negative logarithm of the IC50 (pIC50) in test [1] was 6.57.

On to `O=[N+]([O-])c1ccc(N/C(Cc2cccc(Cl)c2)=N\O)c2nonc12`, for which the pIC50 in test [1] is 6.70.

Regarding `O=[N+]([O-])c1ccc(N/C(=N\O)c2ccc(F)c(Br)c2)c2nonc12`, the negative-log IC50 (pIC50) in test [1] is 7.04; in test [3] it was 6.97; in test [2], 4.33; in test [4], 6.97.

`O=[N+]([O-])c1ccc(N/C(=N\O)c2cccc(F)c2)c2nonc12`: the pIC50 was 7.12 in test [1], 6.61 in test [3], 4.35 in test [2] and 7.08 in test [4].

Take `O=[N+]([O-])c1ccc(N/C(Cc2cccc(F)c2)=N\O)c2nonc12`: the negative-log IC50 (pIC50) in test [1] is 6.88.

Take `O=[N+]([O-])c1ccc(N/C(=N\O)c2ccccc2Cl)c2nonc12`: the pIC50 in test [1] was 6.87.

On to `COc1ccc(C/C(=N/O)Nc2ccc([N+](=O)[O-])c3nonc23)cc1`, for which the pIC50 in test [1] was 6.89.

For the compound `O=[N+]([O-])c1ccc(N/C(=N\O)c2ccc(Cl)cc2)c2nonc12`, the pIC50 in test [1] is 6.95; in test [2], 4.40.

On to `O=[N+]([O-])c1ccc(N/C(Cc2ccccc2)=N\O)c2nonc12`, for which, in test [1], the negative logarithm of the IC50 (pIC50) was 6.51.

As to `O=[N+]([O-])c1ccc(N/C(Cc2ccc(Cl)c(Cl)c2)=N\O)c2nonc12`, the pIC50 in test [1] was 7.41; in test [3], 7.15; in test [2] it was 4.49; in test [4], 7.28.

As to `O=[N+]([O-])c1ccc(N/C(Cc2ccc(F)c(F)c2)=N\O)c2nonc12`, the pIC50 in test [1] was 7.23; in test [3], 7.30; in test [2], 4.03; in test [4] it was 7.31.

Turning to `Cc1cccc(/C(=N/O)Nc2ccc([N+](=O)[O-])c3nonc23)c1`, the negative-log IC50 (pIC50) in test [1] was 6.79.

In the case of `O=[N+]([O-])c1ccc(N/C(=N\O)c2ccccc2Br)c2nonc12`, the pIC50 in test [1] is 7.10; in test [3] it was 7.18; in test [2], 4.60; in test [4], 7.19.

Turning to `Cc1ccc(/C(=N/O)Nc2ccc([N+](=O)[O-])c3nonc23)cc1`, the negative logarithm of the IC50 (pIC50) in test [1] was 6.69.

On to `O=[N+]([O-])c1ccc(N/C(=N\O)c2ccc(F)c(Cl)c2)c2nonc12`, for which the pIC50 in test [1] is 6.80.

Take `O=[N+]([O-])c1ccc(N/C(=N\O)c2cccc(Br)c2)c2nonc12`: the pIC50 is 6.98 in test [1] and 4.70 in test [2].

Take `O=[N+]([O-])c1ccc(N/C(=N\O)c2ccc(F)cc2)c2nonc12`: the pIC50 in test [1] was 7.00; in test [3] it was 6.90; in test [2], 4.68; in test [4], 7.22.

As to `O=[N+]([O-])c1ccc(N/C(Cc2ccc(Br)cc2)=N\O)c2nonc12`, the results for the pIC50 in test [1] and in test [2] were 6.95 and 4.37, respectively.

Consider `Nc1nonc1C(=NO)Nc1ccc(F)c(Cl)c1`, for which the negative logarithm of the IC50 (pIC50) in test [2] was 4.62.
